Measured values taken from US12692232B2, “Indole carboxamide compound, preparation therefor and use thereof” (NANJING RUISHUNING MEDICAL TECHNOLOGY CO., LTD., priority 2021, dated 2026).

Tested on: lipopolysaccharide (LPS)-induced mouse model of sepsis
Test: LPS-induced mouse model of sepsis, cardiopulmonary injury
Format: in vivo
Details: 4 hours after LPS 40 mg/kg; for LVFS: model 15.2 ± 2.8; for LVEF: model 34.3 ± 2.9; for lung coefficient: LPS model 7.24%±0.21%
Method: A lipopolysaccharide (LPS)-induced mouse model of sepsis was used to determine the preventive and therapeutic effect of the compounds of the present invention (as exemplified by compound 1-1 obtained in Example 1) on cardiopulmonary injury caused by sepsis. The method was as follows:
Grouping of animals: 50 male C57BL/6J mice aged 6-8 weeks. The mice were randomly divided into 5 groups of 10 mice each, namely, i) a solvent control group: each animal was administered 0.9% saline; ii) a sepsis model group (LPS group): each animal was injected intraperitoneally with LPS at a dose of 40 mg/kg; iii) a treatment group of medium-dose compound 1-1 of Example (LPS+25 mg/kg of compound 1-1 obtained in Example 1): each animal was administered compound 1-1 by gavage at a dose of 25 mg/kg, followed by intraperitoneal injection of LPS at a dose of 40 mg/kg 30 minutes later; iv) a treatment group of high-dose compound 1-1 of Example 1 (LPS+50 mg/kg of compound 1-1 group obtained in Example 1): each animal was administered compound 1-1 by gavage at a dose of 50 mg/kg, followed by intraperitoneal injection of LPS at a dose of 40 mg/kg 30 minutes later; v) a treatment group of medium-dose indole analogue 3-[(1-methyl-1H-indole-2-carbonyl)amino]propionic acid disclosed in CN2019107285315 (LPS+25 mg/kg of indole analogue 3-[(1-methyl-1H-indole-2-carbonyl)amino]propionic acid disclosed in CN2019107285315): each animal was administered the indole analogue by gavage at a dose of 25 mg/kg, followed by intraperitoneal injection of LPS at a dose of 40 mg/kg 30 minutes later. 4 hours after LPS stimulation, follow-up examinations were performed in each group.
Assessment of cardiac function in mice: 4 animals from each group were used for this assay. Isoflurane was used to maintain proper anesthesia and spontaneous breathing in the mice. The mice were placed in the supine position on a constant temperature pad at 37° C., and the extremities of the mice were connected to four electrodes with conductive paste and fixed on the ultrasonic operating table. The probe was coated with ultrasound coupling agent, and placed in the lower middle part of the left sternum of the mice, and the short-axis M-mode echocardiographic images of the left ventricle adjacent to the sternum were acquired in real time. The dynamic images of 10 consecutive cardiac cycles were acquired using M-mode echocardiography, and the images were stored and analyzed offline. Left ventricular ejection fraction (LVEF) and left ventricular fraction shortening (LVFS) were calculated from left ventricular end diastolic diameter (LVEDD) and left ventricular end systolic diameter (LVESD), respectively, using the formulae: LVEF=(LVEDD^3−LVESD^3)/LVEDD^3×100% and LVFS=(LVEDD−LVESD)/LVEDD×100%.
Determination of lung coefficient: after weighting, the mice were anesthetized with pentobarbital sodium injection, and the whole lung was removed from the thorax, and the tissue around the lung was removed. Surface moisture and blood stains were wiped dry with filter paper, and the wet weight of the lung was weighed. Lung coefficient=lung wet weight […]/mouse body weight (g)×100%.
Histopathological observations: after the mice were anaesthetized with pentobarbital sodium injection, the lungs and ventricles were removed by thoracotomy and fixed in 10% neutral formaldehyde (pH=7.4) for 2 days. Routine paraffin embedding, serial sectioning, H&E staining, neutral balsam sealing and microscopic observation were performed.

| Compound | LVFS (medium-dose 25 mg/kg gavage) [%] | LVEF (medium-dose 25 mg/kg gavage) [%] | lung coefficient (medium-dose 25 mg/kg) | LVFS (high-dose 50 mg/kg gavage) [%] | LVEF (high-dose 50 mg/kg gavage) [%] | lung coefficient (high-dose 50 mg/kg) |
| --- | --- | --- | --- | --- | --- | --- |
| Cn1c(C(=O)NCCC(=O)O)cc2ccccc21 [3-[(1-methyl-1H-indole-2-carbonyl)amino]propionic acid, reference compound] | 22.9±4.0 | 53.2±3.8 | 5.48%±0.15% | – | – | – |
| CC(=O)OCCCNC(=O)c1c(C=O)c2ccccc2n1C [compound 1-1, propyl 3-[(3-formyl-1-methyl-1H-indole-2-carbonyl)amino]acetate] | 24.5±2.6 | 58.7±4.3 | 5.16%±0.19% | 30.7±2.2 | 63.8±3.9 | 4.93%±0.12% |
